This is an account of results in patent US20230339886A1 (University of Florida Research Foundation, Incorporated, priority 2020, published 2023).

For this assay, the target named is T1, REV-ERBα LBD (human; residues 281-614 Δ324-422) (Homo sapiens, UniProt P20393, DEL324-422).
T1 construct: 6×Histag-REV-ERBα LBD (human; residues 281-614 Δ324-422); made in house; host or cells: Escherichia coli
T1 sequence (P20393 with tags, fused parts or gaps DEL324-422): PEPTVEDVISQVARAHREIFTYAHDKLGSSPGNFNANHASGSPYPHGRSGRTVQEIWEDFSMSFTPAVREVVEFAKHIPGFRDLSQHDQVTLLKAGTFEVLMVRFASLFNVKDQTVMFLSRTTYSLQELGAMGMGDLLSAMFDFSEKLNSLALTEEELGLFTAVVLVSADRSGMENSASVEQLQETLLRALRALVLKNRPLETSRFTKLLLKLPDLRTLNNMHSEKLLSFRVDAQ
T1 sequence (Q9Y618 2335-2356 partner limits assumed): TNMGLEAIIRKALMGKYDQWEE
Nature of the assay: TR-FRET corepressor interaction assay (REV-ERBα LBD, FITC-SMRT peptide). The conditions noted are these: FITC-SMRT peptide, read-out: REVERBα agonism (EC50 class, FRET assay). The class given is biochemical. Put shortly:
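Compound serial dilutions (in DMSO, triplicate) incubated 2 h at 4 °C; Tb donor excited at 340 nm, emission read at 495 nm and FITC acceptor at 520 nm. TR-FRET ratio (520/495 nm) plotted against ligand concentration and fitted to a sigmoidal dose-response curve.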
Consider `CC(C)C(=O)n1cc([C@H](NS(=O)(=O)C2CCC2)C(F)(F)F)c2cc(F)c(-c3ccccc3C(F)(F)F)cc21` [Example 505, (S)—N-(2,2,2-trifluoro-1-(5-fluoro-1-isobutyryl-6-(2-(trifluoromethyl)phenyl)-1H-indol-3-yl)ethyl)cyclobutanesulfonamide], for which the EC50 is under 500 nM.
The figure for `CC(C)(C)Cn1cc([C@H](NS(=O)(=O)C2CCC2)C(F)(F)F)c2ccc(C3CCCC3)cc21` [Example 506, (S)—N-(1-(6-cyclopentyl-1-neopentyl-1H-indol-3-yl)-2,2,2-trifluoroethyl)cyclobutanesulfonamide] is under 500 nM.
To `CC(NS(=O)(=O)C1CCC1)c1cn(CC(C)(C)C)c2cc(-c3ccccc3C(F)(F)F)ccc12` (stereo not drawn) [Example 507, N-(1-(1-neopentyl-6-(2-(trifluoromethyl)phenyl)-1H-indol-3-yl)ethyl)cyclobutanesulfonamide] belongs under 500 nM; to `CC(NS(=O)(=O)C1CCC1)c1cn(CC(C)(C)C)c2cc(-c3ccccc3C(F)(F)F)c(F)cc12` (stereo not drawn) [Example 508, N-(1-(5-fluoro-1-neopentyl-6-(2-(trifluoromethyl)phenyl)-1H-indol-3-yl)ethyl)cyclobutanesulfonamide], under 500 nM.
The figure for `[2H]C([2H])([2H])C(NS(=O)(=O)C1CCC1)c1cn(CC(C)(C)C)c2cc(-c3ccccc3C(F)(F)F)ccc12` (stereo not drawn) [Example 509, N-(1-(1-neopentyl-6-(2-(trifluoromethyl)phenyl)-1H-indol-3-yl)ethyl-2,2,2-d3)cyclobutanesulfonamide] is under 500 nM.
On to `CC(NS(=O)(=O)C1CCC1)c1cn(CC2CCCC2)c2cc(-c3ccccc3C(F)(F)F)ccc12` (stereo not drawn) [Example 510, N-(1-(1-(cyclopentylmethyl)-6-(2-(trifluoromethyl)phenyl)-1H-indol-3-yl)ethyl)cyclobutanesulfonamide], for which the EC50 was under 500 nM.
The figure for `CC(C)(C)Cn1cc([C@H](NS(=O)(=O)C2CCC2)C(F)(F)F)c2cc(F)c(-c3c(F)cccc3C(F)(F)F)cc21` [Example 511, N-((1S)-2,2,2-trifluoro-1-(5-fluoro-6-(2-fluoro-6-(trifluoromethyl)phenyl)-1-neopentyl-1H-indol-3-yl)ethyl)cyclobutanesulfonamide] is 500 to 3000 nM.
Regarding `CC1(Cn2cc([C@H](NS(=O)(=O)C3CCC3)C(F)(F)F)c3ccc(-c4ccccc4C(F)(F)F)cc32)CC1` [Example 512, (S)—N-(2,2,2-trifluoro-1-(1-((1-methylcyclopropyl)methyl)-6-(2-(trifluoromethyl)phenyl)-1H-indol-3-yl)ethyl)cyclobutanesulfonamide], the EC50 was under 500 nM.
`CC(C)(C)Cn1cc([C@H](NS(=O)(=O)C2CCC2)C(F)F)c2ccc(-c3ccccc3C(F)(F)F)cc21` [Example 513, (S)—N-(2,2-difluoro-1-(1-neopentyl-6-(2-(trifluoromethyl)phenyl)-1H-indol-3-yl)ethyl)cyclobutanesulfonamide]: the EC50 is under 500 nM.
To `C[C@H]1C[C@@H]1S(=O)(=O)N[C@@H](c1cn(CC(C)(C)C)c2cc(-c3ccccc3C(F)(F)F)ccc12)C(F)(F)F` [Example 514, (1S,2S)-2-methyl-N—((S)-2,2,2-trifluoro-1-(1-neopentyl-6-(2-(trifluoromethyl)phenyl)-1H-indol-3-yl)ethyl)cyclopropane-1-sulfonamide] belongs under 500 nM; to `CC(C)(C)Cn1cc([C@H](NS(=O)(=O)C2CC2(F)F)C(F)(F)F)c2ccc(-c3ccccc3C(F)(F)F)cc21` (stereo partly drawn) [Example 515, 2,2-difluoro-N—((S)-2,2,2-trifluoro-1-(1-neopentyl-6-(2-(trifluoromethyl)phenyl)-1H-indol-3-yl)ethyl)cyclopropane-1-sulfonamide], 500 to 3000 nM; to `CC(C)(C)Cn1cc([C@@H](CF)NS(=O)(=O)C2CCC2)c2ccc(-c3ccccc3C(F)(F)F)cc21` [Example 516, (S)—N-(2-fluoro-1-(1-neopentyl-6-(2-(trifluoromethyl)phenyl)-1H-indol-3-yl)ethyl)cyclobutanesulfonamide], under 500 nM.
To `[2H]C([2H])(n1cc([C@H](NS(=O)(=O)C2CCC2)C(F)(F)F)c2ccc(-c3ccccc3C(F)(F)F)cc21)C(C)(C)C` [Example 517, (S)—N-(1-(1-(2,2-dimethylpropyl-1,1-d2)-6-(2-(trifluoromethyl)phenyl)-1H-indol-3-yl)-2,2,2-trifluoroethyl)cyclobutanesulfonamide] belongs under 500 nM.
The figure for `CC(C)(C)Cn1cc([C@H](NS(=O)(=O)C2CCC2)C(F)F)c2ccc(-c3ccccc3C(F)(F)F)nc21` [Example 518, (S)—N-(2,2-difluoro-1-(1-neopentyl-6-(2-(trifluoromethyl)phenyl)-1H-pyrrolo[2,3-b]pyridin-3-yl)ethyl)cyclobutanesulfonamide] is under 500 nM; for `CC(C)(C)Cn1cc([C@H](NS(=O)(=O)C2CCC2)C(F)(F)F)c2ccc(C3CCOCC3)cc21` [Example 519, (S)—N-(2,2,2-trifluoro-1-(1-neopentyl-6-(tetrahydro-2H-pyran-4-yl)-1H-indol-3-yl)ethyl)cyclobutanesulfonamide] it is under 500 nM; for `N#Cc1cccc(F)c1-c1ccc2c([C@H](NS(=O)(=O)C3CCC3)C(F)(F)F)cn(C3CCC3)c2c1` [Example 520, (S)—N-(1-(6-(2-cyano-6-fluorophenyl)-1-cyclobutyl-1H-indol-3-yl)-2,2,2-trifluoroethyl)cyclobutanesulfonamide] it is under 500 nM.
For `CC(C)(C)Cn1cc([C@H](NS(=O)(=O)C2CCC2)C(F)(F)F)c2ccc(C3=CCCC3)cc21` [Example 521, (S)—N-(1-(6-cyclopentenyl-1-neopentyl-1H-indol-3-yl)-2,2,2-trifluoroethyl)cyclobutanesulfonamide], the EC50 is under 500 nM.
The figure for `CC(C)(C)Cn1cc([C@H](NS(=O)(=O)C2CC(O)C2)C(F)(F)F)c2ccc(-c3ccccc3C(F)(F)F)cc21` (stereo partly drawn) [Example 522, (S)-3-hydroxy-N-(2,2,2-trifluoro-1-(1-neopentyl-6-(2-(trifluoromethyl)phenyl)-1H-indol-3-yl)ethyl)cyclobutane-1-sulfonamide] is 500 to 3000 nM; for `O=S(=O)(N[C@@H](c1cn(CC2(C(F)(F)F)CC2)c2cc(-c3ccccc3C(F)(F)F)ccc12)C(F)(F)F)C1CCC1` [Example 523, (S)—N-(2,2,2-trifluoro-1-(1-((1-(trifluoromethyl)cyclopropyl)methyl)-6-(2-(trifluoromethyl)phenyl)-1H-indol-3-yl)ethyl)cyclobutanesulfonamide] it is under 500 nM.
The figure for `CC(C)(C)Cn1cc([C@H](NS(=O)(=O)C2CC2)C(F)(F)F)c2cc(F)c(-c3ccccc3C(F)(F)F)nc21` [Example 524, (S)—N-(2,2,2-trifluoro-1-(5-fluoro-1-neopentyl-6-(2-(trifluoromethyl)phenyl)-1H-pyrrolo[2,3-b]pyridin-3-yl)ethyl)cyclopropanesulfonamide] is under 500 nM; for `CC(C)(C)Cn1cc([C@H](NS(=O)(=O)C2CCC2)C(F)(F)F)c2cc(F)c(-c3ccccc3C(F)(F)F)nc21` [Example 525, (S)—N-(2,2,2-trifluoro-1-(5-fluoro-1-neopentyl-6-(2-(trifluoromethyl)phenyl)-1H-pyrrolo[2,3-b]pyridin-3-yl)ethyl)cyclobutanesulfonamide] it is under 500 nM.
